pEC50, pIC50, pKi: −log10 of the molar value.
Experiments:
[1] = biological target: T1, Neuronal acetylcholine receptor; alpha4/beta2 (Homo sapiens, UniProt P17787+P43681); assay: Binding affinity to human alpha4beta2 nAChR expressed in xenopus oocyte
[2] = biological target: T1, Neuronal acetylcholine receptor; alpha4/beta2; assay: Binding affinity to alpha4beta2 nAChR; format: protein-complex assay
[3] = biological target: T1, Neuronal acetylcholine receptor; alpha4/beta2; assay: Partial agonist activity at alpha4beta2 nAChR in human SH-EP1 cells assessed as calcium flux by calcium4-based FLIPR assay; format: functional, cell-based
[4] = biological target: Neuronal acetylcholine receptor subunit alpha-7 (Homo sapiens, UniProt P36544); assay: Displacement of [3H]epibatidine from human alpha7 nAChR expressed in CHO cells after 2 hrs by liquid scintillation counting; format: cell-based
Neuronal acetylcholine receptor subunit alpha-7, sequence (P36544 whole entry): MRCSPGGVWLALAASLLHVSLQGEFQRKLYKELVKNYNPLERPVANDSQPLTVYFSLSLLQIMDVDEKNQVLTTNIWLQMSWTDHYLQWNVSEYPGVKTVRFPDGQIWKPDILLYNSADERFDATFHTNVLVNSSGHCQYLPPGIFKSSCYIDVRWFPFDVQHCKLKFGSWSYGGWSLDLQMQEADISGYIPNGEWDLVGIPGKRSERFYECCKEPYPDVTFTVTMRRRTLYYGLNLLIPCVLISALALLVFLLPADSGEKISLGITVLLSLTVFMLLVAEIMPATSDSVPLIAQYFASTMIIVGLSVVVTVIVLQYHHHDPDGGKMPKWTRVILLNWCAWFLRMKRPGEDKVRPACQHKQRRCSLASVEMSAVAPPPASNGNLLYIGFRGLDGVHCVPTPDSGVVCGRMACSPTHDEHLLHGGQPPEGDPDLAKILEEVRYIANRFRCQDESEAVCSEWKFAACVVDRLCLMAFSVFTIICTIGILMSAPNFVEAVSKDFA

[5] = biological target: T1, Neuronal acetylcholine receptor; alpha4/beta2; assay: Partial agonist activity at alpha4beta2 nAChR in human SH-EP1 cells assessed as calcium flux by calcium4-based FLIPR assay relative to nicotine; format: functional, cell-based
[6] = biological target: T2, Neuronal acetylcholine receptor; alpha3/beta4 (Homo sapiens, UniProt P30926+P32297); assay: Agonist activity at human alpha3beta4 nAChR expressed in CHO cells assessed as calcium flux by calcium4-based FLIPR assay relative to nicotine; format: functional, cell-based
T2 sequence (P30926 whole entry): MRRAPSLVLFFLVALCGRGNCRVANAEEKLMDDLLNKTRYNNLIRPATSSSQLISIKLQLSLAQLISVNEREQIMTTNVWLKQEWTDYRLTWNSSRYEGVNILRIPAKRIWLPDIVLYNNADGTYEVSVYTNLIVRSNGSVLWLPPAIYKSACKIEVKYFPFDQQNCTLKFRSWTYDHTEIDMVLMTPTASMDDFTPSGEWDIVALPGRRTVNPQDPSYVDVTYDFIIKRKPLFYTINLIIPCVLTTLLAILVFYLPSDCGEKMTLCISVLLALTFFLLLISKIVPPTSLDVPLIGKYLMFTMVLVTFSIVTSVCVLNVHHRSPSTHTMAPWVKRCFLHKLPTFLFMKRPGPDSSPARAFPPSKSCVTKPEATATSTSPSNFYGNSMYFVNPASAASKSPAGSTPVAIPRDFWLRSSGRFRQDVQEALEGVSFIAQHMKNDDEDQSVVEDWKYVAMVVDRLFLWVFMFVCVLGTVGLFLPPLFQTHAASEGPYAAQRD
T2 sequence (P32297 whole entry): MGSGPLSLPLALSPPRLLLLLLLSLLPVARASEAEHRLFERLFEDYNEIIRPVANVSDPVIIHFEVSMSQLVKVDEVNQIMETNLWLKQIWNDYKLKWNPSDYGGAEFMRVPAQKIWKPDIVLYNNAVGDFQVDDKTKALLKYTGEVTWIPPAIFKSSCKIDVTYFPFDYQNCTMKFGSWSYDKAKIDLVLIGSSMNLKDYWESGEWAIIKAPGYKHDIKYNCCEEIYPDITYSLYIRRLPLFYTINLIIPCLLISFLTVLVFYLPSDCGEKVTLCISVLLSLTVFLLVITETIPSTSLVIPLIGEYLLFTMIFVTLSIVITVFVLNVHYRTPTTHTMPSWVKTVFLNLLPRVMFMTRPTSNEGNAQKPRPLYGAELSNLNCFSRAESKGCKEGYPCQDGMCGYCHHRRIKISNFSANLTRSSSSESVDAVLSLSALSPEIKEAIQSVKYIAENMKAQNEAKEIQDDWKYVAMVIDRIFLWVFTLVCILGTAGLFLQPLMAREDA

[7] = biological target: T2, Neuronal acetylcholine receptor; alpha3/beta4; assay: Displacement of [3H]epibatidine from human alpha3beta4 nAChR expressed in CHO cells after 2 hrs by liquid scintillation counting; format: cell-based
[8] = biological target: T2, Neuronal acetylcholine receptor; alpha3/beta4; assay: Agonist activity at human alpha3beta4 nAChR expressed in CHO cells assessed as calcium flux by calcium4-based FLIPR assay; format: functional, cell-based
[9] = biological target: T1, Neuronal acetylcholine receptor; alpha4/beta2; assay: Displacement of [3H]nicotine from alpha4beta2 nAChR in human SH-EP1 cells after 2 hrs by liquid scintillation assay; format: cell-based
[10] = biological target: T1, Neuronal acetylcholine receptor; alpha4/beta2; assay: Displacement of [3H]methylcarbamylcholine from alpha4beta2 nAChR; format: protein-complex assay
[11] = biological target: Neuronal acetylcholine receptor; alpha4/beta2 (Rattus norvegicus, UniProt P09483+P12390); assay: Displacement of [3H]epibatidine from alpha4beta2 nAChR in Sprague-Dawley rat cortex after 2 hrs by liquid scintillation counting
Neuronal acetylcholine receptor; alpha4/beta2 (Rattus norvegicus, UniProt P09483+P12390), sequence (P09483 whole entry): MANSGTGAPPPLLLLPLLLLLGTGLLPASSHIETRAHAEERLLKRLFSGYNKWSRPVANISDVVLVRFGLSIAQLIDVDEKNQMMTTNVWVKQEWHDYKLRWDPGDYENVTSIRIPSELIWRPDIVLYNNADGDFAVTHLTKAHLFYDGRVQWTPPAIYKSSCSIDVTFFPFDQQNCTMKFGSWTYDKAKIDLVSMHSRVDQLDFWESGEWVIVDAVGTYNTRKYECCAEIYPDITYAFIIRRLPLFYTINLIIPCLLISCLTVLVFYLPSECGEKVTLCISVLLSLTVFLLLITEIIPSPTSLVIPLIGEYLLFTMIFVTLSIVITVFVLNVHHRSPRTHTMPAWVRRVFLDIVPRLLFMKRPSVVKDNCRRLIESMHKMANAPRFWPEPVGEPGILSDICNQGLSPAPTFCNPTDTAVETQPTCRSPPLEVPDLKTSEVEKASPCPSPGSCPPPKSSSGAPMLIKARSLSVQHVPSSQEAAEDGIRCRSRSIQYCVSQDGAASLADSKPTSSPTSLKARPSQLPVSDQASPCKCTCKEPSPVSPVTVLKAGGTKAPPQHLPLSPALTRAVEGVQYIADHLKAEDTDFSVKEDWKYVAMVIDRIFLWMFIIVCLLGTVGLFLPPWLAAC
Neuronal acetylcholine receptor; alpha4/beta2 (Rattus norvegicus, UniProt P09483+P12390), sequence (P12390 whole entry): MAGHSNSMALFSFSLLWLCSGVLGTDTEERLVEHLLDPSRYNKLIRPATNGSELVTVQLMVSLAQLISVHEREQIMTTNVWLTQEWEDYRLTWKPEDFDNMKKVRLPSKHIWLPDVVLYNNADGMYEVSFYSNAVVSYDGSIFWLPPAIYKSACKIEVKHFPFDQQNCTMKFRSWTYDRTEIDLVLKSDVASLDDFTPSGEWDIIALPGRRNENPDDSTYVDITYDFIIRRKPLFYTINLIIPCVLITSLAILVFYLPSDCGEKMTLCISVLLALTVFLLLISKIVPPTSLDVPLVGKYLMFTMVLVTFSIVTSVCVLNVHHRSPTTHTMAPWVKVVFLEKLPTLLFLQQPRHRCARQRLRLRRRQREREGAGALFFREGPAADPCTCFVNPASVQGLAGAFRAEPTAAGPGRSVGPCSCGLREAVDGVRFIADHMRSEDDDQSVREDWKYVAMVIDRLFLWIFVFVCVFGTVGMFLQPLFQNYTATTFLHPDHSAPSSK

[12] = biological target: T1, Neuronal acetylcholine receptor; alpha4/beta2; assay: Agonist activity at alpha4beta2 nAChR in human SH-EP1 cells assessed as calcium flux by calcium4-based FLIPR assay; format: functional, cell-based
[13] = biological target: T1, Neuronal acetylcholine receptor; alpha4/beta2; assay: Agonist activity at alpha4beta2 nAChR in human SH-EP1 cells assessed as calcium flux by calcium4-based FLIPR assay relative to nicotine; format: functional, cell-based
[14] = biological target: T1, Neuronal acetylcholine receptor; alpha4/beta2; assay: Apparent antagonist activity at alpha4beta2 nAChR in human SH-EP1 cells assessed as inhibition of nicotine-induced calcium flux by calcium4-based FLIPR assay; format: functional, cell-based
[15] = biological target: T1, Neuronal acetylcholine receptor; alpha4/beta2; assay: Apparent antagonist activity at alpha4beta2 nAChR in human SH-EP1 cells assessed as inhibition of nicotine-induced calcium flux by calcium4-based FLIPR assay relative to control; format: functional, cell-based

T1 sequence (P17787 whole entry): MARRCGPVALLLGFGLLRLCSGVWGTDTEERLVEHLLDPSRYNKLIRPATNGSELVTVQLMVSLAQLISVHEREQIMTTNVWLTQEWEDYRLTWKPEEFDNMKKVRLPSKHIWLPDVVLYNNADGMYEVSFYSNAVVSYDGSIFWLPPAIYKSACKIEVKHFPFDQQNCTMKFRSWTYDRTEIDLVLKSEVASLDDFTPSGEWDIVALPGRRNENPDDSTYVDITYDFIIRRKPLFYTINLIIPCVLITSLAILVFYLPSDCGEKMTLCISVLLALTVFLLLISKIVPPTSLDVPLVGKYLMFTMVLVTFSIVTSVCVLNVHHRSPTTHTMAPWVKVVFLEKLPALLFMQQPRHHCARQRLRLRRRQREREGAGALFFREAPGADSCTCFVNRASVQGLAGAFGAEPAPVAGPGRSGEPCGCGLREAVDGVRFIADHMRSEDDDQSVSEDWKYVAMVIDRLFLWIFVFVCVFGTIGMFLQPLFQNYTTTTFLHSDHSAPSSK
T1 sequence (P43681 whole entry): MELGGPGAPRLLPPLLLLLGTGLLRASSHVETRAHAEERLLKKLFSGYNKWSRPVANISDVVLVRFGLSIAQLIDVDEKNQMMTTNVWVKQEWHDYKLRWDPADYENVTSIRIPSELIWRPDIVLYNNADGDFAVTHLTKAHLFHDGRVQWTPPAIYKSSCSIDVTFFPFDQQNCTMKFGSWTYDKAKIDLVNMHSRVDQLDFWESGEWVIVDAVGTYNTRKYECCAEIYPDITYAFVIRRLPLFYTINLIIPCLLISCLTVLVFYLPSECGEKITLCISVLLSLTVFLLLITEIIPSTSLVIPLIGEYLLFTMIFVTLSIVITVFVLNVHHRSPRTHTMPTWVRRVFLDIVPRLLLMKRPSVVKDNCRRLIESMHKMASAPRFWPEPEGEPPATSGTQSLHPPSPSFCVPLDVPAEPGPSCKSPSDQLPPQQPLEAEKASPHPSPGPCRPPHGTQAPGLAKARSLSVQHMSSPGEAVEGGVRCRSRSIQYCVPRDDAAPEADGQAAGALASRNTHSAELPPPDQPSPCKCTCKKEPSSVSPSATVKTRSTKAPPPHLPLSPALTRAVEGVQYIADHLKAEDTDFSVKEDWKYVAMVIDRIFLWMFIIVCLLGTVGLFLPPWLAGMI

Row | pIC50 [14] | Imax [15] [%] | Compound | pKi [1] | pKi [2] | pEC50 [3] | pKi [4] | Emax [5] [%] | Emax [6] [%] | pKi [7] | pEC50 [8] | pKi [9] | pKi [10] | pKi [11] | pEC50 [12] | Emax [13] [%]
1 |  |  | CC(=O)/C=C1\CN2CCC1CC2 | 7.89 |  |  |  |  |  |  |  |  |  |  |  | 
2 |  |  | c1cncc(N2CC3CNCC(C3)C2)c1 |  | 9.70 |  |  |  |  |  |  |  |  |  |  | 
3 |  |  | N#Cc1coc(C(=O)N2CC3CNCC(C3)C2)c1 |  |  | 3.96 | < 5.00 | 20 | 19 | < 5.00 | 4.46 | 7.48 |  |  |  | 
4 |  |  | C(=C1/CN2CCC1CC2)/c1cccnc1 |  |  |  |  |  |  |  |  |  | 8.70 |  |  | 
5 |  |  | O=C(c1ccc(Br)o1)N1CC2CNCC(C2)C1 |  |  | 5.08 | < 5.00 | 23 | 28 | 5.19 | 4.52 | 7.59 |  | 7.00 |  | 
6 |  |  | O=C(c1cc(F)co1)N1CC2CNCC(C2)C1 |  |  | 6.10 | < 5.00 | 66 | 93 | 5.49 | 4.66 | 7.66 |  |  |  | 
7 |  |  | Cc1ncoc1C(=O)N1CC2CNCC2C1 (stereo not drawn) |  |  |  | 5.23 |  | 51 | 4.66 | 4.48 | 8.10 |  | 7.22 | 5.17 | 110
8 |  |  | O=C(c1occc1Br)N1CC2CNCC(C2)C1 |  |  | 5.07 | < 5.00 | 8 | 20 | 5.19 | 4.62 | 7.64 |  | 6.89 |  | 
9 |  |  | O=C(c1cccnc1)N1CC2CNCC2C1 (stereo not drawn) |  |  |  | 4.70 |  | 55 | 5.36 | 4.54 | 6.31 |  | 6.80 | 4.52 | 58
10 |  |  | O=C(c1cc(Cl)co1)N1CC2CNCC(C2)C1 |  |  | 4.00 | < 5.00 | 11 | 27 | 5.18 | 4.27 | 8.30 |  | 7.40 |  | 
11 |  |  | N#Cc1ccc(C(=O)N2CC3CNCC(C3)C2)o1 |  |  | 5.15 | < 5.00 | 58 | 64 | 4.68 | 4.47 | 8.10 |  | 7.11 |  | 
12 | 5.11 | 94 | O=C(c1ccc(Oc2ccccc2)cc1)N1CC2CNCC2C1 (stereo not drawn) |  |  |  | 4.89 |  | 12 | 4.85 | 4.60 | 7.72 |  | 7.41 | 4.29 | 9
13 |  |  | Cc1ccoc1C(=O)N1CC2CNCC(C2)C1 |  |  | 4.60 | < 5.00 | 9 | 11 | < 5.00 | 4.60 | 6.72 |  | 6.19 |  | 

— ChEMBL document CHEMBL2176988 (J Med Chem, 2012)
